In patent US9302999B2, “Substituted triazoles as herbicides” (E. I. DU PONT DE NEMOURS AND COMPANY, priority 2012, dated 2016):
Like-named read-outs stand apart in the source and are kept apart here.

Tests used:
Assay type in all cases: in vivo
[1] = test system: wheat (Triticum aestivum); test: Test A pre-/postemergence: wheat; details: for plant injury at 125 g/ha / plant injury at 500 g/ha: Triticum aestivum, 240 h
Outline: (§1)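 Each species received preemergence soil-directed spraying and, at the same time, postemergence treatment of seedlings 2–10 cm tall. Formulation: non-phytotoxic solvent mixture including surfactant. Response assessed visually about ten days on, relative to untreated controls, 0–100 scale.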

[2] = test system: crabgrass, large (large crabgrass, Digitaria sanguinalis); test: Test A pre-/postemergence: crabgrass, large; details: for pest or weed control at 125 g/ha / pest or weed control at 500 g/ha: Digitaria sanguinalis, 240 h
Source text: (§2) Seeds of barnyardgrass (Echinochloa crus-galli), crabgrass, large (large crabgrass, Digitaria sanguinalis), foxtail, giant (giant foxtail, Setaria faberii), morningglory (Ipomoea spp.), pigweed (Amaranthus retroflexus), velvetleaf (Abutilon theophrasti), wheat (Triticum aestivum), and corn (Zea mays) were planted into a blend of loam soil and sand and treated preemergence with a directed soil spray using test chemicals formulated in a non-phytotoxic solvent mixture which included a surfactant. At the same time these species were also treated with postemergence applications of test chemicals formulated in the same manner.
(§3) Plants ranged in height from two to ten cm and were in the one- to two-leaf stage for the postemergence treatment. Treated plants and untreated controls were maintained in a greenhouse for approximately ten days, after which time all treated plants were compared to untreated controls and visually evaluated for injury. Plant response ratings, summarized in Table A, are based on a 0 to 100 scale where 0 is no effect and 100 is complete control. A dash (-) response means no test result.

[3] = test system: morningglory (Ipomoea spp.); test: Test A pre-/postemergence: morningglory; details: for pest or weed control at 125 g/ha / pest or weed control at 500 g/ha: Ipomoea, 240 h
Source text: as §2, §3

[4] = test system: barnyardgrass (Echinochloa crus-galli); test: Test A pre-/postemergence: barnyardgrass; details: for pest or weed control at 125 g/ha / pest or weed control at 500 g/ha: Echinochloa crus-galli, 240 h
Source text: as §2, §3

[5] = test system: pigweed (Amaranthus retroflexus); test: Test A pre-/postemergence: pigweed; details: for pest or weed control at 125 g/ha / pest or weed control at 500 g/ha: Amaranthus retroflexus, 240 h
Source text: as §2, §3

[6] = test system: corn (Zea mays); test: Test A pre-/postemergence: corn
Source text: as §2, §3

[7] = test system: velvetleaf (Abutilon theophrasti); test: Test A pre-/postemergence: velvetleaf; details: for pest or weed control at 125 g/ha / pest or weed control at 500 g/ha: Abutilon theophrasti, 240 h
Outline: as §1

[8] = test system: foxtail, giant (giant foxtail, Setaria faberii); test: Test A pre-/postemergence: foxtail, giant; details: for pest or weed control at 125 g/ha / pest or weed control at 500 g/ha: Setaria faberi, 240 h
Source text: as §2, §3

[9] = Postemergence, 125 g ai/ha, 0 to 100 scale, 0 is no effect, 100 is complete control
[10] = Postemergence, 500 g ai/ha, visual rating on 0 to 100 scale (0 no effect, 100 complete control), approximately ten days
[11] = Preemergence, 125 g ai/ha, 0 to 100 scale where 0 is no effect and 100 is complete control
[12] = Preemergence, 500 g ai/ha, 0 to 100 scale (0 no effect, 100 complete control)

`OCc1nn(-c2ccc(C(F)(F)F)cc2)nc1Oc1cccc(OC(F)(F)F)c1` [Compound 114, 5-[3-(trifluoromethoxy)phenoxy]-2-[4-(trifluoromethyl)phenyl]-2H-1,2,3-triazole-4-methanol] showed a plant injury at 125 g/ha ([1]; post-emergence, Postemergence, 125 g ai/ha, 0 to 100 scale, 0 is no effect, 100 is complete control, read-out: Wheat plant response rating) of 10%, a plant injury at 500 g/ha ([1]; post-emergence, Postemergence, 500 g ai/ha, visual rating on 0 to 100 scale (0 no effect, 100 complete control), approximately ten days, read-out: Wheat plant response rating) of 30% and a plant injury at 125 g/ha ([1]; pre-emergence, Preemergence, 125 g ai/ha, 0 to 100 scale where 0 is no effect and 100 is complete control, read-out: Plant response rating, Wheat) of 0%. For the same molecule, the plant injury at 500 g/ha ([1]; pre-emergence, Preemergence, 500 g ai/ha, 0 to 100 scale (0 no effect, 100 complete control), read-out: Plant response rating, Wheat) was 0%, the pest or weed control at 125 g/ha ([2]; post-emergence, Postemergence, 125 g ai/ha, 0 to 100 scale, 0 is no effect, 100 is complete control, read-out: Crabgrass, Large plant response rating) was 30% and the pest or weed control at 500 g/ha ([2]; post-emergence, Postemergence, 500 g ai/ha, visual rating on 0 to 100 scale (0 no effect, 100 complete control), approximately ten days, read-out: Crabgrass, Large plant response rating) was 70%. It also gave a pest or weed control at 125 g/ha ([2]; pre-emergence, Preemergence, 125 g ai/ha, 0 to 100 scale where 0 is no effect and 100 is complete control, read-out: Plant response rating, Crabgrass, Large) of 0%, a pest or weed control at 500 g/ha ([2]; pre-emergence, Preemergence, 500 g ai/ha, 0 to 100 scale (0 no effect, 100 complete control), read-out: Plant response rating, Crabgrass, Large) of 30% and a pest or weed control at 125 g/ha ([3]; post-emergence, Postemergence, 125 g ai/ha, 0 to 100 scale, 0 is no effect, 100 is complete control, read-out: Morningglory plant response rating) of 60%. For the same molecule, the pest or weed control at 500 g/ha ([3]; post-emergence, Postemergence, 500 g ai/ha, visual rating on 0 to 100 scale (0 no effect, 100 complete control), approximately ten days, read-out: Morningglory plant response rating) was 90%, the pest or weed control at 125 g/ha ([3]; pre-emergence, Preemergence, 125 g ai/ha, 0 to 100 scale where 0 is no effect and 100 is complete control, read-out: Plant response rating, Morningglory) was 10% and the pest or weed control at 500 g/ha ([3]; pre-emergence, Preemergence, 500 g ai/ha, 0 to 100 scale (0 no effect, 100 complete control), read-out: Plant response rating, Morningglory) was 30%. For the same molecule, the pest or weed control at 125 g/ha ([4]; post-emergence, Postemergence, 125 g ai/ha, 0 to 100 scale, 0 is no effect, 100 is complete control, read-out: Barnyardgrass plant response rating) was 30%, the pest or weed control at 500 g/ha ([4]; post-emergence, Postemergence, 500 g ai/ha, visual rating on 0 to 100 scale (0 no effect, 100 complete control), approximately ten days, read-out: Barnyardgrass plant response rating) was 30% and the pest or weed control at 125 g/ha ([4]; pre-emergence, Preemergence, 125 g ai/ha, 0 to 100 scale where 0 is no effect and 100 is complete control, read-out: Plant response rating, Barnyardgrass) was 0%. It also gave a pest or weed control at 500 g/ha ([4]; pre-emergence, Preemergence, 500 g ai/ha, 0 to 100 scale (0 no effect, 100 complete control), read-out: Plant response rating, Barnyardgrass) of 0%, a pest or weed control at 125 g/ha ([5]; post-emergence, Postemergence, 125 g ai/ha, 0 to 100 scale, 0 is no effect, 100 is complete control, read-out: Pigweed plant response rating) of 80% and a pest or weed control at 500 g/ha ([5]; post-emergence, Postemergence, 500 g ai/ha, visual rating on 0 to 100 scale (0 no effect, 100 complete control), approximately ten days, read-out: Pigweed plant response rating) of 90%. The pest or weed control at 125 g/ha ([5]; pre-emergence, Preemergence, 125 g ai/ha, 0 to 100 scale where 0 is no effect and 100 is complete control, read-out: Plant response rating, Pigweed) was 0%, the pest or weed control at 500 g/ha ([5]; pre-emergence, Preemergence, 500 g ai/ha, 0 to 100 scale (0 no effect, 100 complete control), read-out: Plant response rating, Pigweed) was 10% and the plant injury at 125 g/ha ([6]; Zea mays, post-emergence, 240 h, Postemergence, 125 g ai/ha, 0 to 100 scale, 0 is no effect, 100 is complete control, read-out: Corn plant response rating) was 20%. For the same molecule, the plant injury at 500 g/ha ([6]; Zea mays, post-emergence, 240 h, Postemergence, 500 g ai/ha, visual rating on 0 to 100 scale (0 no effect, 100 complete control), approximately ten days, read-out: Corn plant response rating) was 30%, the Corn plant response rating (crop injury, 0 = no effect, 100 = complete kill) at 125 g/ha ([6]; Zea mays, pre-emergence, 240 h, Preemergence, 125 g ai/ha, 0 to 100 scale where 0 is no effect and 100 is complete control) was 0% and the Corn plant response rating (crop injury, 0 = no effect, 100 = complete kill) at 500 g/ha ([6]; Zea mays, pre-emergence, 240 h, Preemergence, 500 g ai/ha, 0 to 100 scale (0 no effect, 100 complete control)) was 0%. For the same molecule, the pest or weed control at 125 g/ha ([7]; post-emergence, Postemergence, 125 g ai/ha, 0 to 100 scale, 0 is no effect, 100 is complete control, read-out: Velvetleaf plant response rating) was 30%, the pest or weed control at 500 g/ha ([7]; post-emergence, Postemergence, 500 g ai/ha, visual rating on 0 to 100 scale (0 no effect, 100 complete control), approximately ten days, read-out: Velvetleaf plant response rating) was 50% and the pest or weed control at 125 g/ha ([7]; pre-emergence, Preemergence, 125 g ai/ha, 0 to 100 scale where 0 is no effect and 100 is complete control, read-out: Plant response rating, Velvetleaf) was 0%. It also gave a pest or weed control at 500 g/ha ([7]; pre-emergence, Preemergence, 500 g ai/ha, 0 to 100 scale (0 no effect, 100 complete control), read-out: Plant response rating, Velvetleaf) of 10%, a pest or weed control at 125 g/ha ([8]; post-emergence, Postemergence, 125 g ai/ha, 0 to 100 scale, 0 is no effect, 100 is complete control, read-out: Foxtail, Giant plant response rating) of 30% and a pest or weed control at 500 g/ha ([8]; post-emergence, Postemergence, 500 g ai/ha, visual rating on 0 to 100 scale (0 no effect, 100 complete control), approximately ten days, read-out: Foxtail, Giant plant response rating) of 40%. For the same molecule, the pest or weed control at 125 g/ha ([8]; pre-emergence, Preemergence, 125 g ai/ha, 0 to 100 scale where 0 is no effect and 100 is complete control, read-out: Plant response rating, Foxtail, Giant) was 0% and the pest or weed control at 500 g/ha ([8]; pre-emergence, Preemergence, 500 g ai/ha, 0 to 100 scale (0 no effect, 100 complete control), read-out: Plant response rating, Foxtail, Giant) was 10%.
In the case of `Cc1nn(-c2ccc(F)cc2)nc1Oc1cc(C(F)(F)F)ccn1` [Compound 128], the “Wheat plant response rating” value [1, 9] is reported as 0, the “Wheat plant response rating” value [1, 10] is reported as 0 and the “Plant response rating, Wheat” value [1, 11] is reported as 0. For the same molecule, the “Plant response rating, Wheat” value [1, 12] was 0, the “Crabgrass, Large plant response rating” value [2, 9] was 10 and the “Crabgrass, Large plant response rating” value [2, 10] was 20. The “Plant response rating, Crabgrass, Large” value [2, 11] was 0, the “Plant response rating, Crabgrass, Large” value [2, 12] was 20 and the “Morningglory plant response rating” value [3, 9] was 30. The “Morningglory plant response rating” value [3, 10] was 30, the “Plant response rating, Morningglory” value [3, 11] was 0 and the “Plant response rating, Morningglory” value [3, 12] was 20. For the same molecule, the “Barnyardgrass plant response rating” value [4, 9] was 0, the “Barnyardgrass plant response rating” value [4, 10] was 20 and the “Plant response rating, Barnyardgrass” value [4, 11] was 0. The “Plant response rating, Barnyardgrass” value [4, 12] was 0, the “Pigweed plant response rating” value [5, 9] was 30 and the “Pigweed plant response rating” value [5, 10] was 40. For the same molecule, the “Plant response rating, Pigweed” value [5, 11] was 0, the “Plant response rating, Pigweed” value [5, 12] was 0 and the “Corn plant response rating” value [6, 9] was 10. For the same molecule, the “Corn plant response rating” value [6, 10] was 10, the “Plant response rating, Corn” value [6, 11] was 0 and the “Plant response rating, Corn” value [6, 12] was 0. For the same molecule, the “Velvetleaf plant response rating” value [7, 9] was 20, the “Velvetleaf plant response rating” value [7, 10] was 30 and the “Plant response rating, Velvetleaf” value [7, 11] was 0. The “Plant response rating, Velvetleaf” value [7, 12] was 0, the “Foxtail, Giant plant response rating” value [8, 9] was 0 and the “Foxtail, Giant plant response rating” value [8, 10] was 10. For the same molecule, the “Plant response rating, Foxtail, Giant” value [8, 11] was 0 and the “Plant response rating, Foxtail, Giant” value [8, 12] was 20.
